# Results published in patent publication US9556437B2, “FAT1 gene in cancer and inflammation” (DEPARTMENT OF BIOTECHNOLOGY (DBT), priority 2012, dated 2017).
# “Also recorded” adds a separate entry of the source.
# Tests used:
# Assay type in all cases: cell-based, human
# PDCD4 = PDCD4 mRNA expression by q-PCR; settings: 72 hrs post siRNA transfection
# Protocol: (§1) Cell Culture and siRNA Transfection: The human glioma cell lines U87MG, U373, A172, T98G, GOS3 and SW1088 were obtained from ATCC; Rockville, Md., cultured in DMEM (Sigma-Aldrich, Switzerland) supplemented with 10% (v/v) FCS (Sigma-Aldrich), 3.7 g/l sodium bicarbonate (Sigma-Aldrich), Ciprofloxacin 10 μg/ml and 5% CO2 at 37° C. For transfection, 2×10^5 cells were seeded per 25 cm^2 flask. After 24 hrs, cells were transfected with FAT1 siRNA and universal medium GC control siRNA (Invitrogen) according to the manufacturer's protocol with a final concentration of 20 nM of siRNA using LIPOFECTAMINE 2000 (Invitrogen) and Opti-Mem media (Invitrogen). After 4 hrs of siRNA transfection, the media was supplemented with DMEM containing 2×FCS. The ability of each siRNA to mediate knockdown of FAT1 mRNA was confirmed using qRT-PCR. Photomicrographs of the cells were taken using an inverted phase contrast microscope (Nikon TMS, Phase contrast microscope, Japan). For simultaneous knockdown of FAT1 and PDCD4, siRNA from Dharmacon were used. Transfection was performed as earlier with 50 nM of FAT1 siRNA along with 50 nM of PDCD4 siRNA or 50 nM of control siRNA.
# cDNA Synthesis and Quantitative PCR: Total RNA was isolated from cells at appropriate time point (vide supra) using TRIzol reagent (Invitrogen), quantified using a Nanodrop ND-1000 spectrophotometer. DNase (Ambion) treatment was given and 1 μg of total RNA was used for cDNA synthesis, done by Fermentas RevertAid™ First Strand cDNA Synthesis Kit using random decamers. PCR reactions were carried in 10 μL reaction volumes (2.5 μL of 1:5 diluted cDNA, […] of primer mix (0.5 pmol/μL as final concentration of each primer), 1 μL, of 10× Taq Buffer A, 0.5 U Taq polymerase (Bangalore Genei, Bangalore, India), 1 μL Syto9 (Invitrogen), 0.25 μL of 10 mM dNTPs (MBI Fermentas, Thermo Fisher Scientific, Rockford, Ill. USA), and 4.6 μL of nuclease-free water (Ambion) on a RotorGene6000 Real Time PCR in triplicates. The detail of the primers used is given in Table 1. ΔCt values were defined as target gene Ct minus 18s RNA Ct and averaged for each triplicate sample. Statistical significance was determined by Student's t-test analysis (P<0.05).
# PLAU (Urokinase) = assay: PLAU mRNA expression by q-PCR; settings: U87MGsiFAT1 cells
# Protocol: as §1
# cDNA Synthesis and Quantitative PCR: Total RNA was isolated from cells at appropriate time point (vide supra) using TRIzol reagent (Invitrogen), quantified using a Nanodrop ND-1000 spectrophotometer. […]
# A172 cells = assay: Migration assay, modified Boyden chamber; settings: A172siFAT1 vs siControl, 24 hrs assay, 72 hrs post-transfection, P<0.001
# Protocol: (§2) Migration and Invasion Assays: The modified Boyden chamber/matrigel assay was performed according to the manufacturer's directions (BD Biosciences, Bedford, Mass.). For in vitro migration assays, chambers with control inserts that lacked the matrigel coating were used. Transfections were carried out in U87MG and A172 cells and 48 hrs later 3×10^4 U87MG cells/well and 7×10^4 A172 cells/well were resuspended in serum-free DMEM and seeded in triplicate in matrigel-coated (1 mg/ml; BD Biosciences) and uncoated control inserts (8-μm pore-size, BD Bioscience, Bedford, Mass.). The remaining protocol was done as previously described.
# U87MG cells = assay: Migration assay, modified Boyden chamber; settings: U87MGsiFAT1 vs siControl, 24 hrs assay, 72 hrs post-transfection, P<0.01
# Protocol: as §2
# PGE2 = PGE2 ELISA of conditioned medium; settings: U87MGsiFAT1 vs siControl, 72 hrs, p<0.01
# Protocol: PGE2 ELISA: U87MG cells (2.5×10^5 cells/flask) were plated into 25 cm^2 flask. Transfection was performed on day 1 and 72 hrs later, the conditioned medium was collected and concentrated using Centricon YM-30. The concentration of PGE2 secreted into the medium was measured with an EIA kit for human PGE2 (Cayman Chemical, Michigan, USA).
# phospho-Akt = assay: Western blot phospho-Akt; settings: U87MG cells after FAT1 knockdown
# Protocol: FIG. 9: FAT1 knockdown results in increased p-akt level in U87MG cell line; Akt is known to negatively regulate PDCD4 expression; therefore, the effect of FAT1 knockdown on the phosphorylation status of Akt in U87MG cells was checked by Western blot analysis using β-actin as a loading control.
# Western Blotting Analyses: Cells were lysed in triple detergent buffer containing protease and phosphatase inhibitors (Sigma Aldrich), lysates were quantified by BCA kit (Pierce, Thermo Fisher Scientific, Rockford, Ill. USA) and electrophoresed in 10% SDS-PAGE and electroblotted on nitrocellulose membrane (Millipore, Billerica, Mass., USA). Membrane was blocked with 5% bovine serum albumin (BSA) in 1×TBS at 4° C. for overnight. Primary and secondary antibody was diluted in 5% BSA and 0.1% tween-20 in 1×TBS. Blot was incubated in primary antibody overnight at 4° C. followed by secondary antibody incubation for 2 hrs at room temperature. Blot was developed by BCIP-NBT (Promega, Madison, Wis., USA) and captured using Alpha Imager EP software.
# U87MG and A172 cells = assay: Cell morphology, phase contrast microscopy; settings: U87MGsiFAT1 and A172siFAT1 vs siControl, 72 hrs post transfection
# Protocol: as §1
substance,measurement,setting,value
"siFAT1: FAT1 specific siRNA (Invitrogen), FAT Stealth RNAi siRNA-I (HSS103567), used for further experiments (sense CCCAACACACCUGUGGUCAUGGUAA; antisense UUACCAUGACCACAGGUGUGUUGGG; Stealth modification, chemistry not fully specified; listed as Homo sapiens)",increase in PDCD4 mRNA expression,"PDCD4; A172, vs siControl",2.8 fold
same,increase in PDCD4 mRNA expression,"PDCD4; T98G, vs siControl",3.5 fold
same,increase in PDCD4 mRNA expression,"PDCD4; U87MG, vs siControl",2.4 fold
same,increase in PDCD4 mRNA expression,"PDCD4; U373MG, vs siControl",3.2 fold
same,increase in PDCD4 mRNA expression,"PDCD4; all the GBM cell lines (U87MG, A172, U373 and T98)",more than two fold
same,decrease in PLAU mRNA expression,PLAU (Urokinase),more than 10 fold
same,reduction in migration,A172 cells,> 3 fold
same,reduction in migration,U87MG cells,> 2 fold
same,reduction of PGE2 secreted into the medium,PGE2,> 2 fold
same,phospho-Akt level,phospho-Akt,increase
same,cell morphology,U87MG and A172 cells,significant morphological alterations; also recorded: Distinct phenotypic changes
